Source: US20050182025A1, “Amidinylphenyl compounds and their use as fungicides” (priority 2002, published 2005)

Tests used:
Format in all cases: in vivo
[1] = tested on: Erysiphe graminis f. sp. tritici; test: Test A: preventive spray on wheat seedlings, wheat powdery mildew, disease rating; conditions: wheat seedlings sprayed to run-off, inoculated the following day with Erysiphe graminis f. sp. tritici, rated after 7 days at 20° C.; test concentration not given
Summary of the method: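 Wheat seedlings sprayed to run-off with compound suspension (200 ppm ≈ 500 g/ha) in acetone/water with surfactant, inoculated next day with Erysiphe graminis f. sp. tritici spores. After 7 days at 20 °C, disease rated 0–100 as % control relative to untreated plants.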

Puccinia recondita = test: Test B: preventive spray on wheat seedlings, wheat leaf rust, disease rating; conditions: wheat seedlings sprayed to run-off, inoculated the following day with Puccinia recondita, 24 h saturated atmosphere then 6 days at 20° C.; test concentration not given
Summary of the method: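 Compound suspended in acetone/water (50/50) with 250 ppm Trem 014 surfactant, sprayed to run-off on wheat seedlings (200 ppm ≈ 500 g/ha); P. recondita spores inoculated next day. Plants held 24 h saturated at 20° C, then 6 days at 20° C; disease rated as % control relative to untreated (100 = full control).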

Septoria nodorum = test: Test C: preventive spray on wheat seedlings, Septoria glume blotch, disease rating; conditions: wheat seedlings sprayed to run-off, inoculated the following day with Septoria nodorum, 48 h saturated atmosphere then 9 days at 20° C.; test concentration not given
Summary of the method: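 Wheat seedlings were sprayed to run-off with compound suspensions in acetone/water containing 250 ppm Trem 014 (200 ppm equals 500 g/ha), then inoculated with Septoria nodorum spores next day. Plants were held 48 h saturated at 20° C., then 9 days at 20° C. Disease control was rated 0–100 relative to controls.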

Row | Structure (SMILES) | Test A disease control rating (100 = 100% disease control, 0 = no disease control relative to the controls) [1] [%] | Test B disease control rating (100 = 100% disease control, 0 = no disease control relative to the controls) (Puccinia recondita) [%] | Test C disease control rating (100 = 100% disease control, 0 = no disease control relative to the controls) (Septoria nodorum) [%]
1 | COC(=O)C(=Nc1cc(C)c(OCCC[Si](C)(C)C)cc1C)N(C)C [compound 128] | 98 | 95 | 73
2 | CCN(C)C(=Nc1cc(Cl)c(OCCC[Si](C)(C)C)cc1C)C(=O)OC [compound 129] | 100 | 100 | 67
3 | COC(=O)C(=Nc1cc(Cl)c(OCCC[Si](C)(C)C)cc1C)N(C)C [compound 130] | 100 | 97 | 0
4 | CCN(C)C(=Nc1cc(C)c(OCCC[Si](C)(C)C)cc1C)C(=O)OC [compound 131] | 67 | 100 | 96
5 | Cc1cc(OCCCC(C)C)c(C)cc1N=CN(C)C [compound 132] | 98 | 100 | 97
6 | Cc1cc(NC(=S)N(C)C)c(C)c(Cl)c1OCCC[Si](C)(C)C [compound 133] | 99 | 85 | 53
7 | CCN(C)C(=S)Nc1cc(C)c(OCCC[Si](C)(C)C)c(Cl)c1C [compound 134] | 100 | 100 | 81
8 | Cc1cc(NC(=S)N(C)C)c(C)c(Cl)c1OCCCC(C)C [compound 136] | 95 | 91 | 84
9 | CCN(C)C(=S)Nc1cc(C)c(OCCCC(C)C)c(Cl)c1C [compound 137] | 100 | 100 | 84
10 | Cc1cc(NC(=S)N(C)C)c(C)c(Cl)c1OCCCC(C)(C)C [compound 138] | 98 | 74 | 60
11 | CCN(C)C(=S)Nc1cc(C)c(OCCCC(C)(C)C)c(Cl)c1C [compound 139] | 100 | 100 | 99
12 | CCN(C)C=Nc1cc(C)c(OCCC[Si](C)(C)C)c(Cl)c1C [compound 140] | 100 | 100 | 100
13 | CCCCC(CCC)Sc1cc(C)c(N=CN(C)C)cc1C (stereo not drawn) [compound 141] | 0 | 99 | 100
14 | CCCCC(CCC)Sc1cc(C)c(N=C(C)N(C)C)cc1C (stereo not drawn) [compound 142] | 0 | 0 | 53
15 | CCCCC(CCCC)Sc1cc(C)c(N=C(C)N(C)C)cc1C [compound 143] | 0 | 0 | 80
16 | Cc1cc(NCCC(C)CC(C)(C)C)c(C)cc1N=CN(C)C (stereo not drawn) [compound 147] | 0 | 0 | 53
17 | CCCC(CCC(C)C)Nc1cc(C)c(N=CN(C)C)cc1C (stereo not drawn) [compound 148] | 0 | 0 | 47
18 | CCCCC(CCCC)Nc1cc(C)c(N=CN(C)C)cc1C [compound 150] | 0 | 0 | 47
19 | Cc1cc(NC(CCC(C)C)CCC(C)C)c(C)cc1N=CN(C)C [compound 151] | 0 | 0 | 60
20 | Cc1cc(NCCCC(C)C)c(C)cc1N=CN(C)C [compound 154] | 0 | 0 | 47
21 | CCCCC(CCCC)Sc1cc(C)c(N=CN(C)C)cc1C [compound 155] | 0 | 23 | 95
22 | Cc1cc(SCCCC(C)C)c(C)cc1N=CN(C)C [compound 156] | 93 | 100 | 100
